Test results reported in ChEMBL document CHEMBL4602708, “Discovery of CNS-Penetrant Apoptosis Signal-Regulating Kinase 1 (ASK1) Inhibitors” (ACS Med Chem Lett, 2020).

Legend:
P-gp (MDR1), human = assay: Apparent permeability from apical to basolateral side in MDCK-MDR1 cells transfected with human p-gp; format: ADME, cell-based, Canis lupus familiaris; settings: dog
[1] = Volume of distribution at steady state in rat; format: ADME; settings: in vivo, read-out: Vdss

**Q.** What does the source list for COc1nn(-c2cnccn2)cc1C(=O)Nc1cccc(-c2nncn2C(C)C)n1?
**A.** Papp A→B (P-gp (MDR1), human): 5 ×10⁻⁶ cm/s; Vd [1]: 2.3 L/kg

**Q.** Which results are given for C[C@H]1CCCOc2nn(C)cc2C(=O)Nc2cccc(n2)-c2nncn21?
**A.** Papp A→B (P-gp (MDR1), human): 1.8 ×10⁻⁶ cm/s; Vd [1]: 2.7 L/kg
